From ChEMBL document CHEMBL1138146, “Analysis of anti-PDE3 activity of 2-morpholinochromone derivatives reveals multiple mechanisms of anti-platelet activity” (Bioorg Med Chem Lett, 2006)
The source made the active and inactive calls. The calls are words filed in the database; no cut-off is given here.

Columns and labels:
[1] = molecular target: cGMP-inhibited 3',5'-cyclic phosphodiesterase 3A (Homo sapiens) (UniProt Q14432); assay: Inhibition of PDE3A at 50 uM
[2] = molecular target: Phosphodiesterase 3 (Homo sapiens) (UniProt Q14432+Q13370); assay: Inhibition of PDE3 at 6.25 uM; format: protein assay
Homo sapiens = species on record: Homo sapiens; assay: Inhibition of PAR4AP induced platelet aggregation at 25 uM; format: functional

cGMP-inhibited 3',5'-cyclic phosphodiesterase 3A (Homo sapiens), sequence (Q14432 whole entry): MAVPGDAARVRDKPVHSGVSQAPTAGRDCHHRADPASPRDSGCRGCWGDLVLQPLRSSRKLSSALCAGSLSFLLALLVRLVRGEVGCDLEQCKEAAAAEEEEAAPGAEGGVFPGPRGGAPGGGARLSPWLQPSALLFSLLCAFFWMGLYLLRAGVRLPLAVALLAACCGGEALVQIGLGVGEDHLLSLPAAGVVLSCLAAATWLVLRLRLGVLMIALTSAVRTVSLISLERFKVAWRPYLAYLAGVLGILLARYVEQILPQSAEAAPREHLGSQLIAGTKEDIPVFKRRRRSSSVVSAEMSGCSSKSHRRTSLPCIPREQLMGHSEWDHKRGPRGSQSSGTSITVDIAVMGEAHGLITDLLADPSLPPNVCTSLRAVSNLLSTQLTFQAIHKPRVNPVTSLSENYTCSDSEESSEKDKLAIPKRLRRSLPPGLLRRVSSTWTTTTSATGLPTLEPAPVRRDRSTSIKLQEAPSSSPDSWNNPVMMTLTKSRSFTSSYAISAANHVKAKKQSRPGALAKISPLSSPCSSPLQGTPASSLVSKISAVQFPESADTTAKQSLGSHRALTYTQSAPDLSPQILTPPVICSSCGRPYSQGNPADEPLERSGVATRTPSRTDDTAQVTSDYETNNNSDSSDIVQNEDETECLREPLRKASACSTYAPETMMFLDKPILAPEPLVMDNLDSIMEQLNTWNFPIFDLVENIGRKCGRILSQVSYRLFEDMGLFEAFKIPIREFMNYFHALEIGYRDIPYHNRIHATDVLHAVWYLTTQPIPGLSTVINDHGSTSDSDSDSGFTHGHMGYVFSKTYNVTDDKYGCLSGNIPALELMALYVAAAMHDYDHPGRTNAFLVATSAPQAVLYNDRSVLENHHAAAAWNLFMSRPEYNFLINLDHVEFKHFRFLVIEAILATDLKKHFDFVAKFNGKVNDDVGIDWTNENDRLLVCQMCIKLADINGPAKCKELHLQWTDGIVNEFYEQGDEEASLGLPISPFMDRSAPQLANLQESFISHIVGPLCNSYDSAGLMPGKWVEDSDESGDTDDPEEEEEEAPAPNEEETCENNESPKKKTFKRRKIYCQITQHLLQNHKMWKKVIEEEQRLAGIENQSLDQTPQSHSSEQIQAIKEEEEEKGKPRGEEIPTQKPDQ

Row | SMILES | inhibition [1] [%] | inhibition [2] [%] | Activity (Homo sapiens)
1 | O=c1cc(N2CCOCC2)oc2cc(C#Cc3ccccc3)ccc12 | 70 |  | 
2 | COc1cc(-c2ccc(Cl)cc2)c2oc(N3CCOCC3)cc(=O)c2c1 | 63 |  | 
3 | O=c1cc(N2CCOCC2)oc2c(OCc3ccccc3)cccc12 | -7 |  | 
4 | O=c1cc(N2CCOCC2)oc2c(CCc3ccccc3)cccc12 | 28 |  | 
5 | O=c1cc(N2CCOCC2)oc2c(-c3ccccc3)cccc12 | 35 |  | 
6 | Cc1c(C#Cc2ccccc2)ccc2c(=O)cc(N3CCOCC3)oc12 | 44 |  | 
7 | O=c1cc(N2CCOCC2)oc2cc(Oc3ccccc3)ccc12 | 43 |  | 
8 | O=c1cc(N2CCOCC2)oc2cc(-c3ccccc3)ccc12 | 50 |  | 
9 | Cc1c(OCc2ccccc2)ccc2c(=O)cc(N3CCOCC3)oc12 | 86 |  | Active
10 | Cc1c(OCCN2CCN(C)CC2)ccc2c(=O)cc(N3CCOCC3)oc12 | -10 |  | 
11 | Cc1c(-c2ccccc2)ccc2c(=O)cc(N3CCOCC3)oc12 | 83 |  | 
12 | Cc1c(Oc2ccccc2)ccc2c(=O)cc(N3CCOCC3)oc12 | 78 |  | 

More lines, main results first:

Row | inhibition [1] [%] | inhibition [2] [%] | SMILES | Activity (Homo sapiens)
13 | 68 | 46 | Cc1c(OCc2cccnc2)ccc2c(=O)cc(N3CCOCC3)oc12 | 
14 | 49 |  | O=c1cc(N2CCOCC2)oc2cc(OCc3ccccc3)ccc12 | 
15 | 19 |  | O=c1cc(N2CCOCC2)oc2cc(OCc3cccnc3)ccc12 | 
16 | 5 |  | O=c1cc(N2CCOCC2)oc2c(OCc3cccnc3)cccc12 | 
17 | 60 |  | O=c1cc(N2CCOCC2)oc2c(C#Cc3ccccc3)cccc12 | 
